Here are results for 17 molecules from US20240299385A1 (ReWind Therapeutics NV, priority 2021, published 2024).

A value given as a limit tells only on which side of the number the result lay.

The first experiment concerns NMDA receptor.
Test: not given
Particulars: selectivity, background statement; cited from earlier work.
Consider `O=C(O)CCc1c(C(=O)O)[nH]c2cc(Cl)cc(Cl)c12` [MDL29,951, MDL 29,951], for which the “fold more potent as an NMDA receptor antagonist than as a GPR17 activator” value is “approximately ten”.

The target in another experiment is T1, human GPR17 receptor (Homo sapiens, UniProt Q13304).
T1 construct: host or cells: HEK-293
T1 sequence (Q13304 whole entry): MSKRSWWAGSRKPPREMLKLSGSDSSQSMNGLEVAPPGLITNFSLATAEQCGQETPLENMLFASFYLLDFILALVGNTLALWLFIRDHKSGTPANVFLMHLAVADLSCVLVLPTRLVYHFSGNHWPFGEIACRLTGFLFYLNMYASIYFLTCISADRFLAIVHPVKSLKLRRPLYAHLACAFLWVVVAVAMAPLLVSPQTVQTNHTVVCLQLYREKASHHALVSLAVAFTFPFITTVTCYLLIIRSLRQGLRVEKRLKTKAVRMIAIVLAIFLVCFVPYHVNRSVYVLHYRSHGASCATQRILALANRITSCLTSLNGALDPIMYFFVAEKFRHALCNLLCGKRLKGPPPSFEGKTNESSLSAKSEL
In words: Calcium mobilization functional assay (Fluo-8, FLIPR TETRA) in HEK-293 hGPR17 (Gα-q assay). The format is cell-based. The settings on record: antagonism of MDL29,951 (~EC80) induced Ca2+ signal; cell line (HEK-293 hGPR17 or HEK-293 Suchi5 hGPR17) not given. Put shortly:
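Fluo-8-loaded HEK-293 hGPR17 cells (60 min dye loading, room temperature) were preincubated with compound for twenty minutes, then challenged with agonist MDL29,951 at ~EC80, 500 nM. Intracellular calcium release via Gα-q was recorded as FLIPR fluorescence for a further 2 minutes; compounds tested in duplicate.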
One may read the IC50 as the concentration needed to halve the response being measured. Take `N#Cc1cc(F)c(NS(=O)(=O)c2c[nH]c(-c3cccc(F)c3)c2)cc1F` [Cpd 654, N-(4-cyano-2,5-difluorophenyl)-5-(3-fluorophenyl)-1H-pyrrole-3-sulfonamide]: the IC50 is under 500 nM.
For the molecule `O=S(=O)(Nc1nc(F)c(OCCF)cc1F)c1c[nH]c(-c2cc(Cl)ccc2F)c1` [Cpd 655, 5-(5-chloro-2-fluorophenyl)-N-[3,6-difluoro-5-(2-fluoroethoxy)pyridin-2-yl]-1H-pyrrole-3-sulfonamide], the half-inhibitory concentration (IC50) is under 500 nM.
Same read-out and setting: next, `N#Cc1cc(F)c(NS(=O)(=O)c2c[nH]c(-c3ccns3)c2)cc1F` [Cpd 656, N-(4-cyano-2,5-difluorophenyl)-5-(1,2-thiazol-5-yl)-1H-pyrrole-3-sulfonamide]: 500 to 5000 nM; `N#Cc1cc(F)c(NS(=O)(=O)c2c[nH]c(-c3cnsc3)c2)cc1F` [Cpd 657, N-(4-cyano-2,5-difluorophenyl)-5-(1,2-thiazol-4-yl)-1H-pyrrole-3-sulfonamide]: 500 to 5000 nM.
The same measure, in the same setting: the same measure for `N#Cc1cc(F)c(NS(=O)(=O)c2c[nH]c(-c3ncco3)c2)cc1F` [Cpd 658, N-(4-cyano-2,5-difluorophenyl)-5-(1,3-oxazol-2-yl)-1H-pyrrole-3-sulfonamide]: 500 to 5000 nM; for `Cc1csc(-c2cc(S(=O)(=O)Nc3cc(F)c(OC(F)F)cc3F)c[nH]2)c1` [Cpd 659, N-[4-(difluoromethoxy)-2,5-difluorophenyl]-5-(4-methylthiophen-2-yl)-1H-pyrrole-3-sulfonamide]: under 500 nM; for `COc1csc(-c2cc(S(=O)(=O)Nc3cc(F)c(OC(F)F)cc3F)c[nH]2)c1` [Cpd 660, N-[4-(difluoromethoxy)-2,5-difluorophenyl]-5-(4-methoxythiophen-2-yl)-1H-pyrrole-3-sulfonamide]: under 500 nM.
On the same count and under the same terms, next, `COc1csc(-c2cc(S(=O)(=O)Nc3cc(F)c(C#N)cc3F)c[nH]2)n1` [Cpd 661, N-(4-cyano-2,5-difluorophenyl)-5-(4-methoxy-1,3-thiazol-2-yl)-1H-pyrrole-3-sulfonamide]: under 500 nM; `N#Cc1ccc(F)c(-c2cc(S(=O)(=O)Nc3nc(F)c(OCCF)cc3F)c[nH]2)c1` [Cpd 662, 5-(5-cyano-2-fluorophenyl)-N-[3,6-difluoro-5-(2-fluoroethoxy)pyridin-2-yl]-1H-pyrrole-3-sulfonamide]: under 500 nM.
As to `N#Cc1cc(F)c(NS(=O)(=O)c2c[nH]c(-c3cccc4c(C(F)(F)F)coc34)c2)cc1F` [Cpd 663, N-(4-cyano-2,5-difluorophenyl)-5-[3-(trifluoromethyl)-1-benzofuran-7-yl]-1H-pyrrole-3-sulfonamide], the IC50 fell in the range of 500 to 5000 nM.
On the same count and under the same terms, the same measure for `O=S(=O)(Nc1cc(F)c(OC(F)F)cc1F)c1c[nH]c(-c2csc(Cl)c2)c1` [Cpd 664, 5-(5-chlorothiophen-3-yl)-N-[4-(difluoromethoxy)-2,5-difluorophenyl]-1H-pyrrole-3-sulfonamide]: 500 to 5000 nM; for `O=S(=O)(Nc1nc(F)c(OCCF)cc1F)c1c[nH]c(-c2nccs2)c1` [Cpd 665, N-[3,6-difluoro-5-(2-fluoroethoxy)pyridin-2-yl]-5-(1,3-thiazol-2-yl)-1H-pyrrole-3-sulfonamide]: under 500 nM.
The same measure, in the same setting: next, `O=S(=O)(Nc1cc(F)c(OC(F)F)cc1F)c1c[nH]c(-c2cc(Cl)cs2)c1` [Cpd 666, 5-(4-chlorothiophen-2-yl)-N-[4-(difluoromethoxy)-2,5-difluorophenyl]-1H-pyrrole-3-sulfonamide]: under 500 nM; `N#Cc1cc(F)c(NS(=O)(=O)c2c[nH]c(-c3ncc(C(F)(F)F)s3)c2)cc1F` [Cpd 667, N-(4-cyano-2,5-difluorophenyl)-5-[5-(trifluoromethyl)-1,3-thiazol-2-yl]-1H-pyrrole-3-sulfonamide]: 5000 to 50000 nM.
On the same count and under the same terms, the same measure for `O=S(=O)(Nc1cc(F)c(OC(F)F)cc1F)c1c[nH]c(-c2nc3ccccc3s2)c1` [Cpd 668, 5-(1,3-benzothiazol-2-yl)-N-[4-(difluoromethoxy)-2,5-difluorophenyl]-1H-pyrrole-3-sulfonamide]: 500 to 5000 nM; for `O=S(=O)(Nc1cc(F)c(C(F)(F)F)cc1F)c1c[nH]c(-c2ccoc2Cl)c1` [Cpd 669, 5-(2-chlorofuran-3-yl)-N-[2,5-difluoro-4-(trifluoromethyl)phenyl]-1H-pyrrole-3-sulfonamide]: under 500 nM.
